Measurements: patent US20240084353A1, “PROCESS TO PRODUCE MONO-RHAMNOLIPIDS” (Conopco, Inc., d/b/a UNILEVER, priority 2021, published 2024)

System: α-L-rhamnosidase from A. terreus
Experiment: Influence of rhamnose excess on rhamnosidase activity (product inhibition)
Assay type: biochemical, Aspergillus terreus
Details: pNPR substrate, rhamnose solutions 0.6-3 mM added 1:1:1, pH 6.5, 40° C., 30 minutes
Description: The activity is expressed as the changes in time of the relative absorbance at 405 nm. The absorbance was measured every 30 sec. Substrate was used at 100 μM. The analysis was performed only for α-l-rhamnosidase from A. terreus. The influence of rhamnose excess on enzyme activity was investigated using the same colorimetric method as described above (See FIG. 1). The pNPR substrate was first dissolved in DMSO, with concentration adjusted to 300 μM in 100 mM sodium phosphate buffer pH 6.5. Enzymes were diluted to concentration of 30 μg/mL in 100 mM sodium phosphate buffer pH 6.5. Following sequence of rhamnose concentrations were prepared in 100 mM sodium phosphate buffer pH 6.5: 0.6 mM, 1.2 mM, 1.8 mM, 2.4 mM, 3 mM. 240 μL of the total reaction mixture was prepared by adding the substrate solution, the enzyme solution and the rhamnose solution in 1:1:1 ratio. The activity assay was performed on 96-well Microtiter UV plate by Thermo Scientific (Waltham, MA USA). All reactions were done at pH 6.5 and in temperature 40° C. The changes in absorbance were monitored at 405 nm for 30 minutes in Microplate reader Varioskan® Flash.

In the case of C[C@H](O)[C@H](O)[C@@H](O)[C@@H](O)C=O [rhamnose], the “substrate conversion rate with increasing amount of rhamnose added” value is reported as “decreased”.
